This is an account of results in the METLIN SMRT retention time set (Domingo-Almenara et al. 2019).

A short description of this data set: gradient 5% acetonitrile 3 min, to 50% in 2 min, to 85% in 15 min, held 3 min, 100 µL/min. Particulars: column: Zorbax Extend-C18 2.1 x 50 mm; eluents: water / acetonitrile, 0.1% formic acid. In short, it runs like this:
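Standards, all pure, were combined into mixtures of ~100 molecules and run at 100 μL/min on a Zorbax Extend-C18 column (2.1 × 50 mm, 1.8 μm) with water and acetonitrile, each containing 0.1% formic acid. A coupled quadrupole time-of-flight mass spectrometer operated in positive and negative ionization mode. Retention time values come from computationally picked adduct peaks, each inspected manually.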
As for `CCn1cc(-c2nc(CC(=O)NC3CCCCCC3)cs2)c2cccnc21`, the RP-LC retention time was determined as 1050 s.

For the compound `Cc1ccc(-n2c(-c3ccc(Cl)cc3)cn3c4c(=O)n(C)c(=O)n(C)c4nc23)cc1C`, the RP-LC retention time stood at 720 s. Consider `CCn1cc(C(=O)NCc2ccc(Br)cc2)c2cccnc21`, for which the RP-LC retention time is 836 s.

With `COCCCNC(=O)c1csc(-c2cnccn2)n1`, the RP-LC retention time came to 625 s. Then `Cc1ccc(S(=O)(=O)N2CCC(CCNC(=O)NCCC(C)C)CC2)cc1`, with 715 s; and `CCN1C(=O)C(CC(=O)NCCC(C)C)Sc2ncccc21` (centres undefined), with 738 s; and `COC(=O)CNC(=O)N1CCCCCC1c1cccc(C)c1` (centres undefined), with 840 s. Turning to `O=C(CSc1ccc(N2CCCC(C(=O)NC3CC3)C2)nn1)Nc1ccccc1Cl` (centres undefined), the RP-LC retention time amounted to 673 s. Compound `CC(C)C(=O)Nc1ccc(CCc2nc3ccc(C(=O)NCc4ccc5c(c4)OCO5)cc3[nH]2)cc1` had an RP-LC retention time of 669 s. The compound `CCOc1ccc(CNC(=O)C2CCN(S(=O)(=O)c3ccc4c(c3)CCCC(=O)N4)CC2)cc1` yielded an RP-LC retention time of 756 s. Regarding `Cc1cc(C)cc(NC(=O)CSc2ccc(N3CCCC(C(=O)NC4CC4)C3)nn2)c1` (centres undefined), the RP-LC retention time turned out to be 690 s.

With `O=C(NC1CCCC1)C1CCCN(c2nc3ccsc3c(=O)n2Cc2ccc(F)cc2)C1` (centres undefined), the RP-LC retention time is 913 s. Compound `CCCOc1nc2ccccc2nc1N1CCCC(C(=O)NCc2ccc(C)cc2)C1` (centres undefined) showed an RP-LC retention time of 1240 s.

For `CC(=O)Nc1ccc2c(c1)CN(C(=O)c1ccc(C)cc1C)C(C(=O)N(C)C)C2` (centres undefined), the RP-LC retention time came out at 778 s.

`Cc1[nH]c(C(=O)N2CCN(c3cccc(Cl)c3)CC2)c(C)c1S(=O)(=O)N1CCOCC1` displayed an RP-LC retention time of 883 s.

Compound `CN1CCC(N(C)C(=O)CN2C(=O)C(Oc3ccc(F)cc3)C23CCCCC3)CC1` (centres undefined) showed an RP-LC retention time of 680 s. `O=C(c1cccs1)N1CCC2(CC1)NC(=O)N(Cc1cccc(Cl)c1)C2=O` yielded an RP-LC retention time of 810 s. Then `O[C@@H]1CCCC[C@H]1N1CCC(c2ccccc2)CC1`, with 661 s; and `CCC1Oc2ccc(S(=O)(=O)N3CCC(C(=O)NCc4ccc(F)cc4)CC3)cc2NC1=O` (centres undefined), with 922 s; and `CC(C)(C)CC(=O)Nc1ccc2c(c1)N(C(=O)c1ccco1)CCC2`, with 866 s. As for `COc1ccccc1CNC(=O)C1CCCN1S(=O)(=O)c1cc2c(cc1C)NC(=O)C(C)O2` (centres undefined), the RP-LC retention time turned out to be 757 s.

With `O=C(CSc1nnc2c3cc(-c4ccc(F)cc4)nn3ccn12)Nc1ccccc1F`, the RP-LC retention time was 881 s.

`CC1=NS(=O)(=O)N(C)C=C1C(=O)OCc1cc(C)ccc1C` displayed an RP-LC retention time of 957 s. For `COc1ccc(OCc2nnc3sc(C4COc5ccccc5O4)nn23)cc1` (centres undefined), the RP-LC retention time turned out to be 913 s. Then `O=C(c1cccs1)N1CCn2c(nnc2-c2ccccc2)C1`, with 656 s; and `Cc1occc1C(=O)N1CC(F)(F)C[C@H]1c1nc(C2CC2)no1`, with 726 s. The result for `Cc1cccc(-c2noc(Cc3nnc(-c4cccc(Br)c4)o3)n2)c1` reads 1150 s; that for `COc1cccc(NC(=O)Nc2c(-c3ccc(F)cc3)nc3ccccn23)c1`, 677 s.

Consider `Cc1cc(C)n(-c2ccnc(N3CCC(C(=O)NCCc4ccccc4)CC3)n2)n1`, for which the RP-LC retention time worked out at 839 s. Then `CCc1ccc(N2C(=O)Nc3ccccc3C2(O)C(=O)NCCN(CC)CC)cc1` (centres undefined), with 575 s; and `Cc1cc2c(c(=O)n(-c3ccc(F)cc3)c(=O)n2CC(=O)N2CCCc3ccccc32)n1C`, with 893 s; and `CCOC(=O)c1c(CN2CCOCC2)n(C)c2ccc(O)cc12`, with 578 s. `O=C(c1ccc(Br)o1)N1CCC(c2cnn(-c3cccc(F)c3)c2)CC1` returned an RP-LC retention time of 1000 s. With `O=C1CCN(C(=O)COc2ccccc2Cl)c2ccccc2N1`, the RP-LC retention time was found to be 718 s. With `CC(=O)Nc1cc2c(cc1SC(C)C)n(C)c(=O)n2C`, the RP-LC retention time was 705 s.

`CSc1ccc(-c2noc(CN3C(=O)COc4cc(Cl)ccc43)n2)cc1` returned an RP-LC retention time of 1170 s.

Take `Cc1ccc(Nc2nc(C)cc(N3CCN(S(=O)(=O)c4cc(F)ccc4F)CC3)n2)cc1`: the RP-LC retention time is 797 s.

Consider `O=C(CCc1ccccc1)NC1CCN(c2cc(-c3ccccc3)[nH]n2)C1` (centres undefined), for which the RP-LC retention time worked out at 643 s. Regarding `O=C(CSc1cc(N2CCN(c3ccccc3F)CC2)ncn1)Nc1ccccc1F`, the RP-LC retention time amounted to 1190 s.

Consider `Cc1sc(NC(=O)c2ccc(COc3ccc(F)cc3)o2)nc1-c1ccccc1`, for which the RP-LC retention time is 1180 s. Then `O=C(CCC[C@@H]1[C@H]2CCCN3CCC[C@@H](CN1C(=O)c1ccccc1)[C@@H]23)Nc1ccc2c(c1)OCCO2`, with 647 s. Regarding `CCCNC(=O)CCNc1c(-c2cccc(F)c2)nc2cnccn12`, the RP-LC retention time worked out at 650 s. With `Cc1ccc(CNC(=O)c2cccc(-c3nc4cccnc4n3C)c2)o1`, the RP-LC retention time was 722 s. Regarding `COCC(=O)N(CC(=O)N1CCc2sccc2C1COc1ccc(C)cc1C)CC1CC1` (centres undefined), the RP-LC retention time amounted to 982 s. In turn, `CCc1onc(C)c1C1CCCN1C(=O)c1ccc(C)cc1` (centres undefined) returned an RP-LC retention time of 775 s. In turn, `CCOc1ccc(CNC(=O)C2(c3ccc(NC(C)=O)cc3)CCCCC2)cc1` registered an RP-LC retention time of 866 s. `Cc1ccc(-c2ccc3nn(CC(=O)NC4CCCCC4)c(=O)n3n2)cc1C` displayed an RP-LC retention time of 792 s. As to `CN(C1CCc2nn(CC3CC3)c(=O)n2CC1)S(=O)(=O)c1ccccc1Cl` (centres undefined), the RP-LC retention time was 796 s. The result for `Cc1cccc(-n2c(=O)c3sccc3n(Cc3nc(-c4ccc(C(C)(C)C)cc4)no3)c2=O)c1` reads 1260 s; that for `O=C(Cn1cnc2ccccc2c1=O)N[C@@H](C(=O)O)c1ccc(O)cc1`, 589 s. `CC(C)N1CCn2cc(S(=O)(=O)Nc3ccc(F)cc3F)cc2C1=O` displayed an RP-LC retention time of 759 s. Compound `O=C(NC1CCCCCC1)c1nc(Cn2c(=O)oc3ccc(Cl)cc32)no1` displayed an RP-LC retention time of 1050 s. Regarding `Cc1ccc(-c2cc3c(=O)n(Cc4nc(-c5cccc(Br)c5)no4)ncn3n2)c(C)c1`, the RP-LC retention time worked out at 1320 s. Then `Cn1nccc1-c1cccc(-c2noc(CNC(=O)Cc3ccc(Cl)cc3)n2)c1`, with 871 s; and `Cc1nnc(N2CCCC(C(=O)NCCCN3CCCC3)C2)c2nn(-c3ccccc3)c(C)c12` (centres undefined), with 558 s.

Turning to `O=C(CSc1cc(-c2nc(-c3ccccc3)no2)ccn1)N1CCCC1`, the RP-LC retention time turned out to be 941 s. Regarding `O=c1c2oc3ccccc3c2ncn1Cc1nc(-c2cccc(Br)c2)no1`, the RP-LC retention time was found to be 1060 s. `O=C(CN1C(=O)CCCc2ccccc21)N1CCN(C(=O)c2ccco2)CC1` gave an RP-LC retention time of 678 s.

`Cn1c(=O)n(C)c2cc(CNc3ccc(N4CCOCC4)c(Cl)c3)ccc21` had an RP-LC retention time of 811 s.

Turning to `Cc1ccsc1C(=O)N1CCc2[nH]cnc2C12CCCCC2`, the RP-LC retention time stood at 606 s. The result for `COc1ccc(-n2c(=O)n(C)c(=O)c3cc(C(=O)Nc4ccc(C)c(F)c4)cnc32)cc1` reads 965 s; that for `O=c1n(Cc2cccc(F)c2)nc2c(-c3nc(-c4cccc(F)c4)no3)cccn12`, 1030 s; that for `CCNc1cc(N2CCC(CCC(=O)NCC3CC3)CC2)ncn1`, 588 s. As for `COc1ccc2[nH]c(=O)c(CCC(=O)NCc3nc4ccccc4n3C)cc2c1`, the RP-LC retention time is 577 s. `CCn1cc(-c2ccncc2)cc1C(=O)NCc1ccc(Br)cc1`: the RP-LC retention time worked out at 698 s. As for `CCOC(=O)C1CCN(C(=O)CCc2nc(-c3ccc(N4CCCC4)cc3)no2)CC1`, the RP-LC retention time turned out to be 1030 s. In turn, `COc1ccc(-c2nc(NC3CCCCC3)c3ccccc3n2)cc1` registered an RP-LC retention time of 856 s.

In the case of `Cc1sc(-c2cc(C(F)(F)F)[nH]n2)cc1S(=O)(=O)NC1CCCCC1`, the RP-LC retention time is 1030 s. With `CCCn1cc(C(=O)NCC2CCCO2)c2cccnc21` (centres undefined), the RP-LC retention time stood at 669 s.

`CN(C(=O)C1CCCN(c2ncnc3c2nc2n3CCCCC2)C1)c1ccccc1` (centres undefined) gave an RP-LC retention time of 766 s. For the compound `COCCCNS(=O)(=O)c1cc(-c2[nH]ncc2C(=O)N2CCCC2)oc1C`, the RP-LC retention time worked out at 623 s. `O=C(Cn1nc2n(c1=O)CCCCC2)NCc1ccc(F)cc1` came in with an RP-LC retention time of 671 s.

As for `NS(=O)(=O)c1ccc(CCNC(=O)Cn2nc3c(N4CCOCC4)nccn3c2=O)cc1`, the RP-LC retention time is 613 s. With `CCn1c(=O)c2c(nc3n2CCCN3C2CCCCC2)n(C)c1=O`, the RP-LC retention time came to 899 s.

Turning to `C=CCN1C(=O)CC(Nc2ccc(CC)cc2)C1=O` (centres undefined), the RP-LC retention time was 846 s. On to `COCCc1noc(C2Cc3ccccc3N2C(=O)NCc2ccc(C)cc2)n1` (centres undefined), for which the RP-LC retention time is 973 s. `CCCn1nc2n(c1=O)CCN(Cc1ccc(C)c(C)c1)C2` returned an RP-LC retention time of 749 s. Regarding `Cc1ccc(CNC(=O)CCc2nc(N3CCCCC3)c3c(-c4ccc(F)cc4)noc3n2)o1`, the RP-LC retention time was 1030 s. For `COc1ccc(NC(=O)CN2CCC(c3nc(-c4cccs4)no3)CC2)cc1`, the RP-LC retention time was found to be 670 s.
